Tests used:
BTK = biological target: T1, BTK (Homo sapiens, UniProt Q06187); assay: Immune complex kinase assay, BTK from Sf21 cells; type: biochemical; settings: concentrations as high as 350 μM
T1 construct: made in house; host or cells: Sf21 insect cells, baculovirus
Text: (§1) Immune Complex Kinase Assays.

recombinant JAK1 = biological target: T2, recombinant JAK1 (Homo sapiens, UniProt P23458); assay: Immune complex kinase assay, recombinant JAK1; type: biochemical; settings: FIG. 6C & D
T2 construct: made in house; host or cells: Sf21 insect cells, baculovirus
T2 sequence (P23458 whole entry): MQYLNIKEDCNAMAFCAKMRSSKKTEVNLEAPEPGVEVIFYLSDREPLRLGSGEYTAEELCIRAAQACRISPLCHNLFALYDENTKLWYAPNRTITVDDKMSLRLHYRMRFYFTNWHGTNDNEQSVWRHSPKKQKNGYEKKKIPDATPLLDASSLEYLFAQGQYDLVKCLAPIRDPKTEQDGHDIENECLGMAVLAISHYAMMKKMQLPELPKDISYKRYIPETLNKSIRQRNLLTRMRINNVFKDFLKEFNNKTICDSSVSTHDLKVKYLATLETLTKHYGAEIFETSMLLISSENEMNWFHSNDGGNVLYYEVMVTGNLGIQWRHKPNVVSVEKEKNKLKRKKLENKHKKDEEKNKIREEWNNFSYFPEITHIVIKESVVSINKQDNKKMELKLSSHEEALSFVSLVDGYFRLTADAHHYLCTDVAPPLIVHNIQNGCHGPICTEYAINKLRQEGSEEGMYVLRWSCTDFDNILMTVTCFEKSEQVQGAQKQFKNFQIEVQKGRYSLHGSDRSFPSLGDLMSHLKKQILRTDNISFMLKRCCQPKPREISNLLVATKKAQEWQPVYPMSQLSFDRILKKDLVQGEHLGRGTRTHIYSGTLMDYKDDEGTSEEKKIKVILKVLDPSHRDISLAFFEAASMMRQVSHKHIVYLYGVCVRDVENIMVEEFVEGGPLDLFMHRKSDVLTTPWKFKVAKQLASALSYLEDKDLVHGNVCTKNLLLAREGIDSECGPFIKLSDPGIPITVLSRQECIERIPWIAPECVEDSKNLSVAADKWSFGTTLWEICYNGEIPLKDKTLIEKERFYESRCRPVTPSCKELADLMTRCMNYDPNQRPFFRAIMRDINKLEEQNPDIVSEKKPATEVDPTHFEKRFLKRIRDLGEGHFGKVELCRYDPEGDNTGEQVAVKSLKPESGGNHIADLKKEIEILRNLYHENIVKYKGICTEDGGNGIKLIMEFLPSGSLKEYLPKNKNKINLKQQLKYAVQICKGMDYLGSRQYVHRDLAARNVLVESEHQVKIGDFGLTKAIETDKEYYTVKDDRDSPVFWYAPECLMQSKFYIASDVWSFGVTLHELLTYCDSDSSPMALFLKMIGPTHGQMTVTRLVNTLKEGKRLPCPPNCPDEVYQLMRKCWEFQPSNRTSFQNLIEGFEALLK
Text: as §1

[1] = system: JAK1/JAK2-dependent STAT activation; assay: EMSA, IL-3 triggered STAT activation in 32Dc11/IL2Rβ cells; type: cell-based; settings: 10 μg/ml
Procedure: Electrophoretic Mobility Shift Assays (EMSAs). EMSAs were performed to examine the effects of dimethoxyquinazoline compounds on cytokine-induced STAT activation (Goodman et. al., 1998). […] Cells were collected after 15 minutes and resuspended in lysis buffer (100 mM Tris-HCl pH 8.0, 0.5% NP-40, 10% glycerol, […], 0.1 mM NaVO3, 50 mM NaF, 150 mM NaCl, 1 mM DTT, 3 μg/ml Aprotinin, 2 μg/ml Pepstatin A, 1 μg/ml Leupeptin and 0.2 mM PMSF). Lysates were precleared by centrifugation for 30 min. Cell extracts (approximately 10 μg) were incubated with 2 μg of poly(dI-dC) for 30 minutes, followed by a 30 minutes incubation with 1ng of poly. nucleotide kinase-^32P labeled double stranded DNA oligonucleotide representing the IRF-1 STAT DNA binding sequence (Santa Cruz Biotechnology, Santa Cruz, Calif.). Samples were resolved by non-denaturing PAGE and visualized by autoradiography.

human JAK3 = biological target: T3, human JAK3 (Homo sapiens, UniProt P52333); assay: Immune complex kinase assay, JAK3 immunoprecipitated from KL2 EBV-transformed lymphoblastoid B cell line; type: biochemical; settings: JAK3 immunoprecipitated from KL2 cells
T3 construct: KL-2 EBV-transformed human lymphoblastoid B cells (native JAK3 kinase assays); endogenous in cells; host or cells: KL-2 EBV-transformed human lymphoblastoid B cell line
T3 sequence (P52333 1-1124): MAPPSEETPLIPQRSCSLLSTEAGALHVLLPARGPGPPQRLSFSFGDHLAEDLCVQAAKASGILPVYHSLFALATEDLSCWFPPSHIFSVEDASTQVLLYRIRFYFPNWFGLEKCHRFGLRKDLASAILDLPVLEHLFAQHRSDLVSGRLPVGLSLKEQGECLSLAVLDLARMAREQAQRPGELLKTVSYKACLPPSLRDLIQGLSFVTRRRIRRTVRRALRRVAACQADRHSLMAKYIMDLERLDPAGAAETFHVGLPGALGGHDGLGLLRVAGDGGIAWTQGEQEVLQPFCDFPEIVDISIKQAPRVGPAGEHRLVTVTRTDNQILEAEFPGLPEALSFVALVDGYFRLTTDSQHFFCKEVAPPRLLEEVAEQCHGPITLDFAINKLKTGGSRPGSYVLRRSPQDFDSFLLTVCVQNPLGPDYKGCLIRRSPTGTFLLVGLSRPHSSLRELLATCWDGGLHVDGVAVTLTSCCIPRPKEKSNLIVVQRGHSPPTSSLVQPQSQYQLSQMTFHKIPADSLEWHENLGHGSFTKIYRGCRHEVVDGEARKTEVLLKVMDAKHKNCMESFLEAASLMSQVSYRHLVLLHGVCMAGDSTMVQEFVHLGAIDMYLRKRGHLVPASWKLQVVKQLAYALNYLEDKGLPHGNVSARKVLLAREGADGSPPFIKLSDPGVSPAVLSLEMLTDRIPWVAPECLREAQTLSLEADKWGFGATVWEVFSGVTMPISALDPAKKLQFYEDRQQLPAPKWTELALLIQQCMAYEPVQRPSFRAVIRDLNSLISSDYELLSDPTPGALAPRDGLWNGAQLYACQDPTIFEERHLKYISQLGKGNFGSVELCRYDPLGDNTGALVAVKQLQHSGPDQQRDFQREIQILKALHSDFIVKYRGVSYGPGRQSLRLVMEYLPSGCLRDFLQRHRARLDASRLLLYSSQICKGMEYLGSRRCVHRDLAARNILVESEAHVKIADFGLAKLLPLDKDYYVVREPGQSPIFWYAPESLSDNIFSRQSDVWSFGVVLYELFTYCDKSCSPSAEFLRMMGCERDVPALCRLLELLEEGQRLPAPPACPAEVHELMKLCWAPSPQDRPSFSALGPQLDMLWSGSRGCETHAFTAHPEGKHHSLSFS
Procedure: KL-2 EBV-transformed human lymphoblastoid B cells (native JAK3 kinase assays) or insect ovary cells (recombinant JAK3 kinase assays) were lysed with NP-40 lysis buffer (50 mM Tris, pH 8, 150 mM NaCl, 5 mM EDTA, 1% NP-40, 100 μM sodium orthovanadate, 100 μM sodium molybdate, 8 μg/ml aprotinin, 5 μg/ml leupeptin, and 500 μM PMSF) and centrifuged 10 minutes at 13000×g to remove insoluble material. Samples were immunoprecipitated with antisera prepared against JAK3. The antisera were diluted and immune complexes collected by incubation with 15 μl protein A Sepharose. After 4 washes with NP-40 lysis buffer, the protein A Sepharose beads were washed once in kinase buffer (20 mM MOPS, pH 7.0, 10 mM MgCl2) and resuspended in the same buffer. Reactions were initiated by the addition of 25 μCi γ[^32P] ATP (5000 Ci/mMole) and unlabeled ATP to a final concentration of 5 μM. Reactions were terminated by boiling for 4 min in SDS sample buffer. Samples were run on 9.5% SDS polyacrylamide gels and labeled proteins will be detected by autoradiography. […] For each drug concentration, a kinase activity index (KA) was determined by comparing the kinase activity in phosphorimager units (PIU) to that of the baseline sample. […]

T1 sequence (Q06187 whole entry, species assumed): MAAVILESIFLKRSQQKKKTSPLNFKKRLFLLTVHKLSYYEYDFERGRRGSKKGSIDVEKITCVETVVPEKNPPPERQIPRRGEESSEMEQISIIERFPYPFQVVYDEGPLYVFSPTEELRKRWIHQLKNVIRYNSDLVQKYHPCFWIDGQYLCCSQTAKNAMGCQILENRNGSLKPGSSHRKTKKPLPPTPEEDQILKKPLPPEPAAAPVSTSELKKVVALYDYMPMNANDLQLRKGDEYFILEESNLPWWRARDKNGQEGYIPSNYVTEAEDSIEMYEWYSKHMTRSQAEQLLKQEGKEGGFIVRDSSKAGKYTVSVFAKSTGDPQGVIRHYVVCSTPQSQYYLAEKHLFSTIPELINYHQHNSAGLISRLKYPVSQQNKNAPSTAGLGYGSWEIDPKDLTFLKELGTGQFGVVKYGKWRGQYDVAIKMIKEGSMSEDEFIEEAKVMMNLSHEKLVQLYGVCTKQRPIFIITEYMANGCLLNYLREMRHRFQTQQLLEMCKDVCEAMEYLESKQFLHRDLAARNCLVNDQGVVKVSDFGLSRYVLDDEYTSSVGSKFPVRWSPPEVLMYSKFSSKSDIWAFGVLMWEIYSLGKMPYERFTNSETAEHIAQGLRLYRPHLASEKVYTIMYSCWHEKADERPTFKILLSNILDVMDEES

## COc1cc2ncnc(Nc3ccc(O)cc3)c2cc1OC [WHI-P131, 4-(4′-Hydroxylphenyl)-amino-6,7-dimethoxyquinazoline]
BTK
  effect on enzymatic activity of BTK: did not affect
Recombinant JAK1
  inhibitory activity against recombinant JAK1: did not exhibit any detectable inhibitory activity
[1]
  JAK1/JAK2-dependent STAT activation after stimulation with IL-3: did not affect
Human JAK3
  IC50: 9.1 µM

From patent US6452005B1, “JAK-3 inhibitors for treating allergic disorders” (Parker Hughes Institute, priority 1999, dated 2002)
